Measurements published in DBAASP.
≈ marks a conversion by molar mass, not a printed value. Values belong to the compound of their own block, whether it stands above or below them.

Key:
Assay in all cases: ≥ marks a high value that may be exact or a test limit, other limits are often not marked, values filed in µg/mL are converted to µM
[1] = tested on: Staphylococcus epidermidis ATCC 12228
[2] = tested on: Staphylococcus aureus ATCC 6538
[3] = tested on: Micrococcus luteus ATCC 4698
[4] = tested on: Escherichia coli DH5alpha
[5] = tested on: Staphylococcus aureus CIP 677
[6] = tested on: Lactococcus lactis subsp. cremoris I116
Escherichia coli K-12 = tested on: Escherichia coli K-12
Leuconostoc lactis = tested on: Leuconostoc lactis
Streptococcus uberis = tested on: Streptococcus uberis
[7] = tested on: Staphylococcus aureus USA 300
[8] = tested on: Enterococcus faecium ATCC 700221
[9] = tested on: Pseudomonas aeruginosa ATCC 27853
[10] = tested on: Staphylococcus aureus ATCC 25923
[11] = tested on: Candida albicans ATCC 200955
[12] = tested on: Staphylococcus aureus ATCC 33591
[13] = tested on: Micrococcus luteus ATCC 10240
Escherichia coli BL21AI = tested on: Escherichia coli BL21AI
[14] = tested on: Salmonella enterica subsp. enterica serovar Typhimurium ATCC 700408
Escherichia coli D31 = tested on: Escherichia coli D31
[15] = tested on: Klebsiella pneumoniae K6 ATCC 700603
[16] = tested on: Salmonella enterica subsp. enterica serovar Enteritidis
[17] = tested on: Escherichia coli ATCC 25922
Salmonella sp. = tested on: Salmonella sp.
Escherichia coli = tested on: Escherichia coli
Yersinia enterocolitica = tested on: Yersinia enterocolitica
[18] = tested on: Staphylococcus aureus ATCC 43300
[19] = tested on: Staphylococcus aureus ATCC 29213
[20] = tested on: Staphylococcus epidermidis KCTC 1917
[21] = tested on: Salmonella typhimurium KCTC 1926
[22] = tested on: Pseudomonas aeruginosa KCTC 1637
[23] = tested on: Staphylococcus aureus KCTC 1621
[24] = tested on: Candida albicans KCTC 7965
[25] = tested on: Escherichia coli KCTC 1682
[26] = tested on: Bacillus subtilis KCTC 3068
Staphylococcus aureus = tested on: Staphylococcus aureus
[27] = tested on: Pseudomonas aeruginosa ATCC 9027
[28] = tested on: Candida albicans FRR 5580

SMILES: CC(C)C[C@H](NC(=O)[C@H](CC(C)C)NC(=O)[C@H](CCCCN)NC(=O)[C@H](CO)NC(=O)[C@H](CC(C)C)NC(=O)[C@H](C)NC(=O)[C@H](CCCCN)NC(=O)[C@H](Cc1ccccc1)NC(=O)[C@H](CC(C)C)NC(=O)[C@H](C)NC(=O)[C@H](CCCCN)NC(=O)[C@H](CC(C)C)NC(=O)[C@@H](N)Cc1ccccc1)C(=O)O [FLKALFKALSKLL]
- MIC [1]: 6.7 µM (≈ 10 µg/mL)
- MIC [2]: 4.02 µM (≈ 6 µg/mL)
- MIC [3]: 2.68 µM (≈ 4 µg/mL)
- MIC [4]: 16.8 µM (≈ 25 µg/mL)

SMILES: CC[C@H](C)[C@H](NC(=O)CN)C(=O)N[C@@H](Cc1c[nH]c2ccccc12)C(=O)NCC(=O)N[C@H](C(=O)N[C@@H](CC(C)C)C(=O)N[C@@H](C)C(=O)N[C@@H](CCCCN)C(=O)N[C@H](C(=O)NCC(=O)N[C@H](C(=O)N[C@@H](CCCCN)C(=O)N[C@@H](C)C(=O)N[C@H](C(=O)N1CCC[C@H]1C(=O)N[C@@H](CCCN=C(N)N)C(=O)N[C@H](C(=O)N[C@H](C(=O)N[C@@H](CO)C(=O)N[C@@H](CCSC)C(=O)N[C@@H](CC(C)C)C(=O)N[C@@H](CCCCN)C(=O)N[C@@H](CCCCN)C(=O)N[C@@H](CCCCN)C(=O)N[C@@H](CCC(N)=O)C(=O)O)[C@@H](C)CC)C(C)C)C(C)C)[C@@H](C)CC)[C@@H](C)CC)[C@@H](C)O [GIWGTLAKIGIKAVPRVISMLKKKQ]
- MIC [5]: 8 µM (≈ 21.9 µg/mL)
- MIC [6]: 4 µM (≈ 10.9 µg/mL)

SMILES: CC[C@H](C)[C@H](NC(=O)[C@H](CCCN=C(N)N)NC(=O)[C@H](CCCCN)NC(=O)[C@H](CC(C)C)NC(=O)[C@H](CC(C)C)NC(=O)CN)C(=O)N[C@@H](CCCCN)C(=O)N[C@@H](CCCCN)C(=O)N[C@@H](CC(C)C)C(=O)N[C@@H](CC(C)C)C(N)=O [GLLKRIKKLL]
- MIC [8]: ≥ 66.3 µM
- MIC [9]: 28.4 µM (≈ 33.5 µg/mL)
- MIC [10]: 4.23 µM (≈ 5 µg/mL)
- MIC [11]: ≥ 85.3 µM
- MIC [12]: ≥ 256 µM

SMILES: CC(C)C[C@H](NC(=O)[C@H](Cc1ccccc1)NC(=O)CNC(=O)[C@H](Cc1c[nH]c2ccccc12)NC(=O)[C@H](Cc1c[nH]c2ccccc12)NC(=O)[C@H](Cc1c[nH]c2ccccc12)NC(=O)CNC(=O)[C@H](Cc1ccccc1)NC(=O)[C@H](CCCN=C(N)N)NC(=O)[C@H](CCCN=C(N)N)NC(=O)[C@@H](N)C(C)C)C(=O)N[C@@H](CCCN=C(N)N)C(=O)N[C@@H](CCCN=C(N)N)C(=O)O [VRRFGWWWGFLRR]
- MIC [20]: 4.39 µM (≈ 8 µg/mL)
- MIC [21]: 17.6 µM (≈ 32 µg/mL)
- MIC [22]: ≥ 35.1 µM
- MIC [23]: 8.78 µM (≈ 16 µg/mL)
- MIC [24]: 17.6 µM (≈ 32 µg/mL)
- MIC [25]: 17.6 µM (≈ 32 µg/mL)
- MIC [26]: 8.78 µM (≈ 16 µg/mL)

SMILES: NCCCC[C@H](NC(=O)[C@H](Cc1c[nH]c2ccccc12)NC(=O)[C@H](Cc1c[nH]c2ccccc12)NC(=O)[C@H](CCCN=C(N)N)NC(=O)[C@@H](N)Cc1c[nH]c2ccccc12)C(=O)N[C@@H](Cc1c[nH]c2ccccc12)C(=O)N[C@@H](Cc1c[nH]c2ccccc12)C(N)=O [WRWWKWW]
- MIC (Staphylococcus aureus): 6.49 µM (≈ 7.99 µg/mL)
- MIC [17]: 3.24 µM (≈ 4 µg/mL)
- MIC [27]: 25.9 µM (≈ 32 µg/mL)
- MIC [10]: 6.49 µM (≈ 7.99 µg/mL)
- MIC [28]: ≥ 51.9 µM

Further lines, results first:

- MIC [1]: 12.8 µM (≈ 18 µg/mL)
- MIC [2]: 7.82 µM (≈ 11 µg/mL)
- MIC [3]: 4.27 µM (≈ 6 µg/mL)
- MIC [4]: 21.3 µM (≈ 30 µg/mL)
SMILES: CC(C)C[C@H](NC(=O)[C@H](CC(C)C)NC(=O)[C@H](CCCCN)NC(=O)[C@H](CO)NC(=O)[C@H](CC(C)C)NC(=O)[C@H](C)NC(=O)[C@H](CCCCN)NC(=O)[C@H](Cc1ccccc1)NC(=O)[C@@H](NC(=O)[C@H](C)NC(=O)CNC(=O)[C@H](CC(C)C)NC(=O)[C@@H](N)Cc1ccccc1)C(C)C)C(=O)O [FLGAVFKALSKLL]

- MIC (Escherichia coli K-12): ≥ 100 µM
- MIC (Leuconostoc lactis): 25 µM (≈ 50.2 µg/mL)
- MIC (Streptococcus uberis): ≥ 50 µM
- MIC [7]: ≥ 100 µM
SMILES: CC(C)C[C@H](NC(=O)CN)C(=O)N[C@@H](C)C(=O)N[C@@H](CC(=O)O)C(=O)N[C@@H](Cc1ccccc1)C(=O)N[C@@H](CC(C)C)C(=O)N[C@@H](CC(N)=O)C(=O)N[C@@H](CCCCN)C(=O)N[C@@H](C)C(=O)N[C@H](C(=O)NCC(=O)N[C@@H](CCCCN)C(=O)N[C@H](C(=O)N[C@H](C(=O)N[C@@H](CC(=O)O)C(=O)N[C@@H](Cc1ccccc1)C(=O)N[C@H](C(=O)N[C@@H](CCCCN)C(=O)N[C@@H](CO)C(N)=O)C(C)C)C(C)C)C(C)C)C(C)C [GLADFLNKAVGKVVDFVKS]

- MIC [13]: ≥ 60 µM
- MIC (Escherichia coli BL21AI): ≥ 60 µM
SMILES: CC[C@H](C)[C@H](NC(=O)[C@H](Cc1ccc(O)cc1)NC(=O)[C@@H](NC(=O)[C@@H]1CCCN1C(=O)[C@H](CCCN=C(N)N)NC(=O)[C@H](CC(N)=O)NC(=O)[C@H](CC(N)=O)NC(=O)CN)C(C)C)C(=O)N[C@@H](C)C(=O)N[C@@H](CCC(N)=O)C(=O)N1CCC[C@H]1C(=O)N[C@@H](CCCN=C(N)N)C(=O)N1CCC[C@H]1C(=O)N1CCC[C@H]1C(=O)N[C@@H](Cc1cnc[nH]1)C(=O)N1CCC[C@H]1C(=O)N[C@@H](CCCN=C(N)N)C(=O)N[C@@H](CC(C)C)C(N)=O [GNNRPVYIAQPRPPHPRL]

- MIC [14]: 1.87 µM (≈ 4 µg/mL)
- MIC (Escherichia coli D31): ≥ 59.7 µM
- MIC [15]: 29.9 µM (≈ 64 µg/mL)
SMILES: CC[C@H](C)[C@H](NC(=O)[C@H](Cc1ccc(O)cc1)NC(=O)[C@@H](NC(=O)[C@@H]1CCCN1C(=O)[C@H](CCCN=C(N)N)NC(=O)[C@H](CC(N)=O)NC(=O)[C@H](CC(N)=O)NC(=O)CN)C(C)C)C(=O)N1CCC[C@H]1C(=O)N[C@@H](CCC(N)=O)C(=O)N1CCC[C@H]1C(=O)N[C@@H](CCCN=C(N)N)C(=O)N1CCC[C@H]1C(=O)N1CCC[C@H]1C(=O)N[C@@H](Cc1cnc[nH]1)C(=O)N1CCC[C@H]1C(=O)N[C@@H](CCCN=C(N)N)C(=O)N[C@@H](Cc1ccccc1)C(N)=O [GNNRPVYIPQPRPPHPRF]

- MIC [16]: ≥ 50 µM
- MIC [17]: > 50 µM
- MIC [9]: > 50 µM
- MIC (Salmonella sp.): ≥ 50 µM
- MIC (Escherichia coli): > 50 µM
- MIC (Yersinia enterocolitica): ≥ 50 µM
- MIC [18]: > 50 µM
- MIC [19]: > 50 µM
SMILES: NCCCC[C@H](NC(=O)[C@H](CCCCN)NC(=O)[C@H](Cc1ccccc1)NC(=O)[C@H](CCCCN)NC(=O)[C@H](CCCN=C(N)N)NC(=O)[C@H](CCCN=C(N)N)NC(=O)[C@H](Cc1ccccc1)NC(=O)[C@H](CCCCN)NC(=O)[C@@H](N)CCCN=C(N)N)C(N)=O [RKFRRKFKK]
